Where two headings read alike, the source gives them in different places.
Assays:
GABAA (α1β2γ2) receptor = GABAA (α1β2γ2) receptor (Homo sapiens (Human), UniProt P14867+P18507+P47870); experiment: Whole-cell patch-clamp of GABAA (α1β2γ2) receptor current in stably expressing HEK293 cells; assay type: cell-based; conditions: allosteric regulation
Excerpt: Gamma-aminobutyric acid (GABA) was an important inhibitory amino acid neurotransmitter in the central nervous system, and functioned by binding to GABA receptors. The GABA receptors were divided into three subtypes: GABAA, GABAB and GABAC, among which the GABAA receptor was the most important. The GABAA receptor was an anion-selective ion channel that could enhance chloride ion permeability and thus reduce neuronal excitability. The GABAA receptor was involved in regulating general anesthesia and was also closely related to diseases such as neurological and psychiatric disorders, e.g., depression, insomnia, anxiety and epilepsy. […]
HEK293 cell lines stably expressing the GABAA (α1β2γ2) receptor were used. […] The voltage stimulus of GABA receptor current recorded by a whole-cell patch-clamp technique was as follows: when whole-cell sealing was formed, the cell membrane voltage was clamped at −70 mV. The peak value of current was recorded after sequentially spraying test compounds from low concentration to high concentration and 100 μM GABA onto the cell surface in a Gap-free mode. […] Then slow capacitance compensation was conducted, and the membrane capacitance (pF) and series resistance were recorded. […] Multiple cells were independently and repeatedly detected. […]

[1] = Pharmacokinetic study in rats; assay type: in vivo, SD rats; conditions: male, Sprague-Dawley, rat, plasma, iv, 1 mg/kg
Procedure: Twelve male SD rats (200-300 g) were randomized into 2 groups (n=6): control group 3 and compound 20. The rats were administered via intravenous injection at 1 mg/kg (control group 3) and 1 mg/kg (compound 20), respectively, with an administration volume of 5 mL/kg and a vehicle of 5% DMSO+10% solutol (HS15)+85% Saline. Blood samples were taken before administration and at 2 min, 4 min, 8 min, 12 min, 15 min, 30 min, 1 h, 1.5 h and 2 h after administration. Plasma samples were taken by centrifugation, and stored in a −80° C. refrigerator until LC-MS analysis to be tested. After sample processing, quantitative analysis of substances in plasma was conducted using LCMS/MS to detect the concentration of prototype compounds in the plasma. The plasma concentration/time curve obtained in this way was used to calculate pharmacokinetic parameters by a validated pharmacokinetic computer program.

Beagle dogs = experiment: Hemodynamic effect study in conscious Beagle dogs (telemetry); assay type: in vivo; conditions: iv
Procedure: The experiment used an emka PACK 4G telemetry system to detect the effects of intravenous injection of control group 3 and compound 20 on electrocardiogram, blood pressure and body temperature in conscious Beagle dogs, providing reference information for evaluating the safety of clinical use.
Four Beagle dogs were subjected to crossover administration, with a vehicle control (5% DMSO+10% solutol+85% Saline), control group 3 (2 mg/kg), compound 20 (0.5 mg/kg) and compound 20 (1 mg/kg) for each intravenous injection, with an administration volume of 2 mL/kg. Observations were respectively conducted before administration and within 1 h after administration on the day of administration. Anal temperature was measured before administration and at 30 min, 1 h, 2 h and 3 h after administration during each administration period; and electrocardiogram parameters were continuously collected from 0.5 h before administration to 3 h after administration during each administration period. Blood pressure was collected at 15 min after collection was started, and was collected at 2 min, 5 min, 10 min, 20 min, 30 min, 1 h, 2 h and 3 h after administration. The electrocardiogram, blood pressure data, body temperature, and clinical observation results on the day of administration at various time points including before administration (at 30 min after collection was started) and at 2 min, 5 min, 10 min, 20 min, 30 min, 1 h, 2 h and 3 h after administration were analysed and evaluated.

[2] = Pharmacokinetic study in Beagle dogs; assay type: in vivo; conditions: male, dog, plasma, iv, 0.5 mg/kg
Procedure: Six male Beagle dogs (6-10 kg) were randomized into 2 groups (n=3): control group 3 and compound 20. The […] were administered via intravenous injection at 0.5 mg/kg (control group 3) and 0.5 mg/kg (compound 20), respectively, with an administration volume of 1 mL/kg and a vehicle of 5% DMSO+10% solutol (HS15)+85% Saline. Blood samples were taken before administration and at 2 min, 5 min, 10 min, 20 min, 30 min, 1 h, 1.5 h, 2 h and 3 h after administration. Plasma samples were taken by centrifugation, and stored in a −80° C. refrigerator until LC-MS analysis to be tested. After sample processing, quantitative analysis of substances in plasma was conducted using LCMS/MS to detect the concentration of prototype compounds in the plasma. The plasma concentration/time curve obtained in this way was used to calculate pharmacokinetic parameters by a validated pharmacokinetic computer program.

in vivo [3] = conditions: both, ICR, mouse, in vivo, iv
Procedure: (§1) SPF-grade ICR mice, each weighing 18-22 g, half male and half female, were used. A well-established mouse anesthesia model was used to study the general anesthesia effect of the compound of the present invention. The compounds were formulated with solvents of 10% DMSO, 15% solutol (HS15) and 75% saline to the desired concentration, for further use. After adapting to the experimental environment, the experimental animals were fasted with water available for 12 h, and were administered via intravenous injection at an administration volume of 10 mL/kg. Then the anesthesia induction time (the time period from drug administration to disappearance of the righting reflex) and the anesthesia maintenance time (the time period from disappearance of the righting reflex to recovery of the righting reflex) were recorded. Indicators including the median effective dose (ED50), median lethal dose (LD50), therapeutic index (TI, i.e. LD50/ED50), anesthesia induction time, anesthesia maintenance time and maximum tolerated dose were used to evaluate the effect and safety of anesthesia.

ICR mice = experiment: animal or person
Procedure: as §1

SD rats = experiment: animal or person; assay type: in vivo; conditions: rats
Procedure: (§2) SD rats, half male and half female, were fasted with water available for 12 h, and were administered via intravenous injection at an administration volume of 10 mL/kg. Then the anesthesia induction time (the time period from drug administration to disappearance of the righting reflex), the anesthesia maintenance time (the time period from disappearance of the righting reflex to recovery of the righting reflex and revival) and the anesthesia recovery time (the time period from revival to complete recovery) were recorded. Indicators including the median effective dose (ED50), median lethal dose (LD50), therapeutic index (TI, i.e. LD50/ED50), anesthesia induction time, anesthesia maintenance time and maximum tolerated dose were used to evaluate the effect and safety of anesthesia.

in vivo [4] = assay type: in vivo, rats; conditions: both sexes, Sprague-Dawley, rat, in vivo, rats
Procedure: as §2

Chain of GABAA (α1β2γ2) receptor (P14867 28-456 limits assumed): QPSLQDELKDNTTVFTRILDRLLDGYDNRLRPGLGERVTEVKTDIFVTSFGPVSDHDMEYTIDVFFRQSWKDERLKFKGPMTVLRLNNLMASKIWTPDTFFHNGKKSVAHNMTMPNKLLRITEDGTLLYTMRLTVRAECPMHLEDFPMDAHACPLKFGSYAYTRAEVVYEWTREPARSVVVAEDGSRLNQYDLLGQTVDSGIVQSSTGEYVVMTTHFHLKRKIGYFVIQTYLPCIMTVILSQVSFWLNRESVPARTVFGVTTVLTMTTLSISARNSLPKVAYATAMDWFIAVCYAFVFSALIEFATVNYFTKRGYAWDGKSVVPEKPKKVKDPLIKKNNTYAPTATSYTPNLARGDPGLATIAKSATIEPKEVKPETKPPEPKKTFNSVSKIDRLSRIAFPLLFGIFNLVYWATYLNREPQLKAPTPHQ
Chain of GABAA (α1β2γ2) receptor (P47870 26-512 limits assumed): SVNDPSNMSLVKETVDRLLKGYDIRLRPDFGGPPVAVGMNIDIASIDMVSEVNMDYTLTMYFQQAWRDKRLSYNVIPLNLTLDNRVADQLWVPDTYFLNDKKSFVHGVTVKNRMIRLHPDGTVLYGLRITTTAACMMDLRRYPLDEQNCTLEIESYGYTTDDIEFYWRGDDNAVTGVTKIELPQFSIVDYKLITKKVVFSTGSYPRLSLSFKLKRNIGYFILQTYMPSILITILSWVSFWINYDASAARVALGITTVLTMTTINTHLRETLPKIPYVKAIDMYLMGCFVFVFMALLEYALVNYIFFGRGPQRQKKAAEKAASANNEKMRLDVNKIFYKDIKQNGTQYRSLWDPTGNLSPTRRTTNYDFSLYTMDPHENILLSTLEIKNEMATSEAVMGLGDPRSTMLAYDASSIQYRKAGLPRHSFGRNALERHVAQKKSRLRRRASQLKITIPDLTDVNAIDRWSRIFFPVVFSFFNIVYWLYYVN
Chain of GABAA (α1β2γ2) receptor (P18507 40-475 limits assumed): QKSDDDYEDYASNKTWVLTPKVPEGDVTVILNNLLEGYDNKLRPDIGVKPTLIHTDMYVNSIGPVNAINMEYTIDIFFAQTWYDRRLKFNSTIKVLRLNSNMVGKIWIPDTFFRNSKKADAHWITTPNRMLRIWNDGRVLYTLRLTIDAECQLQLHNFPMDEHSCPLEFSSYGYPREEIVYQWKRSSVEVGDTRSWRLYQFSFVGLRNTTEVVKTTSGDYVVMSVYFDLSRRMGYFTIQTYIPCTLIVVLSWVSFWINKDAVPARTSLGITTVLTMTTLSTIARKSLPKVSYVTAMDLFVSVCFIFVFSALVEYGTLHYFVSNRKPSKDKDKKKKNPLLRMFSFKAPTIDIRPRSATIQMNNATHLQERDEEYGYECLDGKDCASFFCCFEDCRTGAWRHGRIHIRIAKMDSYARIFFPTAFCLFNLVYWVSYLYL

Question: For `CCS(=O)(=O)[C@@H](C)c1cccc([C@H](C)C2CC2)c1O` [Compound 20, 2-((R)-1-cyclopropylethyl)-6-((S)-1-(ethylsulfonyl)ethyl)phenol], which EC50 (GABAA (α1β2γ2) receptor; HEK293, -70 mV, n=3, read-out: EC50) is on record?
Answer: 1.56 µM

Question: What about the EC50 (GABAA (α1β2γ2) receptor; HEK293, text restatement, read-out: semi-activated concentration (EC50)) of the same molecule?
Answer: 1.56 µM

Question: And the AUC(0-t) [1]?
Answer: 196 ng·h/mL

Question: And the half-life [1]?
Answer: 19.8 min

Question: What about the “effect on the heart rate, blood pressure and body temperature” value (Beagle dogs; 0.5 and 1 mg/kg) of the same molecule?
Answer: little effect

Question: And the “change in heart rate after administration” value (Beagle dogs; control group 3 2 mg/kg, compound 20 0.5 and 1 mg/kg, within 1 h, recovery after 1 h)?
Answer: slow down in heart rate

Question: And the AUC(0-t) [2]?
Answer: 128 ng·h/mL

Question: What about the half-life [2] of the same molecule?
Answer: 47.4 min

Question: What about the LD50 (in vivo [3]) of the same molecule?
Answer: 3.5 mg/kg

Question: What about the MTD (in vivo [3]) of the same molecule?
Answer: 1.8 mg/kg

Question: What about the ED50 (ICR mice; Mus musculus, iv) of the same molecule?
Answer: 0.6 mg/kg

Question: What about the TI (ICR mice; mice, LD50/ED50) of the same molecule?
Answer: 5.8

Question: What about the Anesthesia induction time (ICR mice; mice, iv, administration to disappearance of righting reflex) of the same molecule?
Answer: 2 s

Question: What about the Anesthesia maintenance time (ICR mice; mice, iv, disappearance to recovery of righting reflex) of the same molecule?
Answer: 573 s

Question: And the ED50 (SD rats; Rattus norvegicus, intravenous injection, loss of righting reflex, read-out: ED50)?
Answer: 0.5 mg/kg

Question: And the TI (SD rats; LD50/ED50)?
Answer: 6.4

Question: And the Anesthesia induction time (SD rats; iv, administration to disappearance of righting reflex)?
Answer: 10 s

Question: What about the Anesthesia maintenance time (SD rats; iv, disappearance to recovery of righting reflex) of the same molecule?
Answer: 624 s

Question: What about the LD50 (in vivo [4]; intravenous injection, read-out: LD50) of the same molecule?
Answer: 3.2 mg/kg

Question: And the MTD (in vivo [4]; iv, maximum tolerated dose, read-out: MTD)?
Answer: 2.2 mg/kg
